Measured values taken from patent US7150974B1, “Parathyroid hormone receptor binding method” (The General Hospital Corporation, priority 1991, dated 2006).

Tests used:
[1] = biological target: T1, rat bone PTH/PTHrP receptor (Rattus norvegicus, UniProt P25961, E586G); test: Intracellular free calcium, COS-7 cells expressing R15B; assay type: cell-based; details: COS-7 cells expressing rat receptor
T1 construct: expressed in transfected cells; host or cells: COS / COS-7 cells, transient, plasmid R15B (pcDNA I)
T1 sequence (P25961 27-591 E586G): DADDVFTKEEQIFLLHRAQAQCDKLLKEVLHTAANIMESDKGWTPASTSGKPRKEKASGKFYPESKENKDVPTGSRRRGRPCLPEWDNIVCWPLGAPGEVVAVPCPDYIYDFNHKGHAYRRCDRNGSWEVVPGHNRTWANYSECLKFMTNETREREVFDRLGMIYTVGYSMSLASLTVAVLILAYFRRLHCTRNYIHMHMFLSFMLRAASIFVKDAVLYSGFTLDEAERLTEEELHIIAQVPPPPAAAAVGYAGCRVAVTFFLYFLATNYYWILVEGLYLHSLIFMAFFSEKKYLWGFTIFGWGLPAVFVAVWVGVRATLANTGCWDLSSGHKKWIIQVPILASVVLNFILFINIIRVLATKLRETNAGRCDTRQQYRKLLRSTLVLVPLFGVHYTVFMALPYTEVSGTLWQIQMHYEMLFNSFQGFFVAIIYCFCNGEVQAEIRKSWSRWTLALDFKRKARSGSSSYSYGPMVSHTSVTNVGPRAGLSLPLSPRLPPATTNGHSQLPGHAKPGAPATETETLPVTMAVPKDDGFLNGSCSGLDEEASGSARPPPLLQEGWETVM
Protocol: (§1) Details of the methodology are:
(§2) Coverslips plated with COS cells were incubated in Fura-2 AM loading buffer containing, in mM: HEPES (N-[2-Hydroxyethyl]piperazine-N′-[2-ethanesulfonic acid]), 20; CaCl2, 1; KCl 5; NaCl, 145; MgSO4, 0.5; NaHCO3, 25; K2HPO4, 1.4; glucose, 10; and Fura-2 AM 91-(2-5′-carboxyoxazol-2′-yl)-6-aminobenzofuran-5oxy-(2′-amino-5′-methylphenoxy)ethane-N,N,N′,N′-tetraaecetic acid acetomethoxy ester), 0.5; at 37° C. at pH7.4, aerated with 95% air and 5% CO2 for 45 minutes. Cells loaded with Fura-2 AM were then washed with a modified Krebs-Heinseleit (KH) buffer containing, in mM: HEPES, 20; CaCl2, 1; KCl, 5; NaCl, 145; MgSO4, 0.5; Na2HPO4, 1; glucose, 5; pH7.4. To check that cleavage of the ester occurred, the excitation spectra after different times of Fura-2 AM incubation were measured.
(§3) To measure fluorescence of individual cells, the cover slips were placed in a microscope tissue chamber (Biophysica Technologies, Inc., MD). The chamber consisted of a shallow, sloped compartment made of Teflon with a silicone rubber seal. The cover slips served as the bottom of the chamber. A heater/cooler ring was encased in the silicone rubber which sealed the coverslip in place.

[2] = biological target: T2, human kidney PTH/PTHrP receptor (Homo sapiens, UniProt Q03431, L389Q); test: Radioreceptor assay, COS-7 cells transiently expressing human kidney PTH/PTHrP receptor (HKrk); assay type: binding
T2 construct: The full-length human kidney PTH/PTHrP receptor cDNA, HKrk, was constructed using the BamHI/PvuII fragment of PCR clone #2 and HK-2; expressed in transfected cells; host or cells: COS-7 cells, transient (DEAE/Dextran), pcDNAI
T2 sequence (Q03431 27-593 L389Q): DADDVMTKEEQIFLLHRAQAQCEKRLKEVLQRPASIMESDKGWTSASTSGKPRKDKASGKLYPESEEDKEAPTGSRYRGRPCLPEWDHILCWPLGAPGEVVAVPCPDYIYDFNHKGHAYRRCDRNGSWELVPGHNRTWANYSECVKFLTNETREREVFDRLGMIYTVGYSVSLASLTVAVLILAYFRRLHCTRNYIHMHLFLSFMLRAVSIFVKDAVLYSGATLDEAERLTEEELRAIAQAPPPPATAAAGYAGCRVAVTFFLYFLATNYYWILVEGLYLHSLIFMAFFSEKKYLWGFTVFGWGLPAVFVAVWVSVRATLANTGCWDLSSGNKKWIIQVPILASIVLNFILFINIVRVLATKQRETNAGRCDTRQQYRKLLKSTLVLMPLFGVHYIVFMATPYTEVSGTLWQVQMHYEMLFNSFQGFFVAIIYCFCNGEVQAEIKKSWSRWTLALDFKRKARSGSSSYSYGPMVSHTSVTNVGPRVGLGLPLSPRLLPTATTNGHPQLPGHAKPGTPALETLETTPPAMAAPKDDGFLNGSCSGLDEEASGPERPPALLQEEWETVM
Protocol: In brief, the labeled peptide was dissolved in 0.1% trifluoracetic acid (TFA), applied to a C18 Sep-pak cartridge (Waters Associates, Inc., Milford, Mass.) and eluted with a solution of 60% acetonitrile in 0.1% TFA. After lyophilization, the radioligand then was applied to C18-μBondapak column (3.9 mm×30 cm. Waters Associates) and eluted over 30 min with a linear gradient of 30-50% acetonitrile-0.1% TFA at a flow rate of 2 ml/min.
COS-7 cells were grown in 15 cm plates in DMEM, 10% heat-inactivated […], 10 mg/L gentamycin until 80-90% confluent. Twenty-four hours after transfection by the DEAE/Dextran method (Sambrook et al., supra), with 1-2 μg of plasmid DNA, the cells were trypsinized and replated in multiwell plastic dishes (16 or 35 mm diameter, Costar, Cambridge, Mass.) at a cell concentration of 5×10^4 cells/cm^2). […] After continuing culture for another 48 h, radiorecepter assays were performed. The culture medium was replaced with buffer containing 50 mM Tris-HCL (pH 7.7), 100 mM NaCl, 2 mM CaCl2, 5 mM KCL, 0.5% heat-inactivated fetal bovine serum (GIBCO), and 5% heat-inactivated horse serum (KC Biological Inc., Lenexa, Kans.) immediately before studies were initiated.
Incubations were terminated by aspirating the buffer, and repeatedly (×3) washing the culture dishes, containing the adherent cells with chilled 0.9% NaCl solution, over a 15 sec period. Cell-bound radioactivity was recovered by the sequential addition (×3) of 1 N NaOH (200 μl) to each well. After 30 min at room temperature, the NaOH was transferred to a glass tube. A second and third extraction with 1 N NaOH (200 μl) were combined with the first, and the total radioactivity was counted in a γ-spectrometer (Packard Instruments, Downers Grove, Ill.).

[3] = biological target: T2, human kidney PTH/PTHrP receptor; test: Intracellular free calcium, COS-7 cells expressing human receptor; assay type: cell-based
Protocol: as §1, §2, §3

[4] = biological target: T3, opossum kidney PTH/PTHrp receptor clone, OK-O (Didelphis virginiana, UniProt P25107, I132F/S86P); test: Intracellular free calcium, COS cells expressing OK-O; assay type: cell-based; details: FIG. 12
T3 construct: expressed in transfected cells; host or cells: COS cells, transient, plasmid OK-O (pcDNA I)
Protocol: as §1, §2, §3

T3 sequence (P25107 27-585 S86P/I132F): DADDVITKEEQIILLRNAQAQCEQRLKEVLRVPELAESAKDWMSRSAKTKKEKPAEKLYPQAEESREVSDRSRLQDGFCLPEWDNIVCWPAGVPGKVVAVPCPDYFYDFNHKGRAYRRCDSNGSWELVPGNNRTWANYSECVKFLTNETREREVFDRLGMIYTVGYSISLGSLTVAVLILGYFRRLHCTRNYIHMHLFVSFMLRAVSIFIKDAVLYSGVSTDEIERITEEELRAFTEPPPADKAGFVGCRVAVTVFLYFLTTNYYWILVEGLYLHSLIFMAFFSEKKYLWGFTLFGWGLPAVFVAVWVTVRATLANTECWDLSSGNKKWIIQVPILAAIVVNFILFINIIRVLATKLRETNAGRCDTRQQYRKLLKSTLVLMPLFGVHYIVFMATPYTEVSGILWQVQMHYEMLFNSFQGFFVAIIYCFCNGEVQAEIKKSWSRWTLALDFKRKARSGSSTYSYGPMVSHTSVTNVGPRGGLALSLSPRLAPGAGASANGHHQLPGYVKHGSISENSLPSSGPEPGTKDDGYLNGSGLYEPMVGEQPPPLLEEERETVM

[Nle^8,18, Tyr^34]bPTH(1-34)amide
increase in intracellular free calcium, PTH(1-34) compared with PTHrP(1-36) [1]: to the same extent | fold higher apparent Kd, human versus rat bone PTH/PTHrP receptor ([2]; human versus rat receptor): 2 fold | specific binding of radiolabelled ligand ([2]; radiolabelled ligand ~200,000 cpm, COS-7 cells transfected with cloned human PTH/PTHrP receptor): 10.1±3.7% | increase in intracellular free calcium, PTH(1-34) compared with PTHrP(1-36) [3]: to the same extent | increase in intracellular free calcium [4]: increase
